Data: patent US20080152640A1, “Means and Methods For Treating a Disease Which is Associated With an Excess Transport of Hyaluronan Across a Lipid Bilayer” (priority 2003, published 2008)

Columns and labels:
MRP transporters [1] = system: T1, MRP transporters; conditions: human erythrocytes; cited from earlier work
T1 construct: other: human erythrocytes

MRP transporters [2] = molecular target: MRP transporters (Homo sapiens, UniProt P33527); conditions: read-out: IC50 for MRP transporter; cited from earlier work
hyaluronan transport = assay: Inhibition of hyaluronan transport (export) from human fibroblasts, discussion of Example 9; conditions: human fibroblasts
Method: Cells from five culture flasks (180 cm2 growth area) were washed with cold phosphate buffered saline (PBS), harvested with the aid of a rubber policeman, sedimented at 1500 g for 5 min and suspended in 30 ml of ice-cold PBS. The cells were transferred into a Parr-cell disruption bomb, exposed to a nitrogen pressure of 900 psi for 15 min and disrupted by nitrogen cavitation [18] and the particulate fraction was obtained by centrifugation at 40000 g for 20 min. […] Hyaluronan synthesis was stopped by adding a solution of 10% sodium dodecylsuifate (SDS) to a final concentration of 1%. The mixtures were applied to descending paper chromatography that was developed with ethanol/aq. 1 M ammonium acetate pH 5.5 (13:7) as solvent. After 18 h the radioactivity of [14C]hyaluronan at the origin was determined.
Trypsinised fibroblasts were suspended in Dulbecco's medium at 10^5 cells/ml and 100 μl aliquots were transferred to a 96 well microtiter plate. The first row received 200 μl of the suspension and 20 μl of the multidrug resistance inhibitors dissolved in DMSO at concentrations of 4 mM. A serial dilution to the inhibitors was established by transfer of 100 μl aliquots from the first row to the following rows. All experiments were performed in duplicates. […] The cells were incubated for 2 days at 37° C. and aliquots (5 and 20 μl) of the culture medium were used for measurement of the hyaluronan concentration in the cell culture medium by an ELISA [19]. […] The mixtures were transferred to the hyaluronan-coated test plate and incubated for 1 hour at 37° C. The microtiter plate was washed three times with buffer A and incubated with 100 μl/well of a solution of streptavidin-horseraddish-peroxidase (Amersham) at a dilution of 1:100 in phosphate buffered saline, 0.1% Tween-20 for 30 min at room temperature. The plate was washed five times with buffer A and the colour was developed by incubation with a 100 μl/well of a solution of 5 mg o-phenylenediamine and 5 μl 30% H2O2 in 10 ml of 0.1 M citrate-phosphate buffer pH 5.3 for 25 min at room temperature. The adsorption was read at 490 nm. The concentrations in the samples were calculated from a logarithmic regression curve of the hyaluronan standard solutions.
Three parameters were measured: 1. The amount of hyaluronan produced during growth into the culture supernatant. 2. The hyaluronan synthase activity in particulate membrane fractions to eliminate the possibility that inhibition of hyaluronan production in cell culture could be caused indirectly by cellular mediators. 3. The effect on cell proliferation, because hyaluronan synthesis is also required for detachment during mitosis and growth of the human HT1080 cell line [14].

MRP7 = molecular target: T2, MRP7 (Homo sapiens, UniProt Q5T3U5); conditions: cited from earlier work
T2 sequence (Q5T3U5 1-1492): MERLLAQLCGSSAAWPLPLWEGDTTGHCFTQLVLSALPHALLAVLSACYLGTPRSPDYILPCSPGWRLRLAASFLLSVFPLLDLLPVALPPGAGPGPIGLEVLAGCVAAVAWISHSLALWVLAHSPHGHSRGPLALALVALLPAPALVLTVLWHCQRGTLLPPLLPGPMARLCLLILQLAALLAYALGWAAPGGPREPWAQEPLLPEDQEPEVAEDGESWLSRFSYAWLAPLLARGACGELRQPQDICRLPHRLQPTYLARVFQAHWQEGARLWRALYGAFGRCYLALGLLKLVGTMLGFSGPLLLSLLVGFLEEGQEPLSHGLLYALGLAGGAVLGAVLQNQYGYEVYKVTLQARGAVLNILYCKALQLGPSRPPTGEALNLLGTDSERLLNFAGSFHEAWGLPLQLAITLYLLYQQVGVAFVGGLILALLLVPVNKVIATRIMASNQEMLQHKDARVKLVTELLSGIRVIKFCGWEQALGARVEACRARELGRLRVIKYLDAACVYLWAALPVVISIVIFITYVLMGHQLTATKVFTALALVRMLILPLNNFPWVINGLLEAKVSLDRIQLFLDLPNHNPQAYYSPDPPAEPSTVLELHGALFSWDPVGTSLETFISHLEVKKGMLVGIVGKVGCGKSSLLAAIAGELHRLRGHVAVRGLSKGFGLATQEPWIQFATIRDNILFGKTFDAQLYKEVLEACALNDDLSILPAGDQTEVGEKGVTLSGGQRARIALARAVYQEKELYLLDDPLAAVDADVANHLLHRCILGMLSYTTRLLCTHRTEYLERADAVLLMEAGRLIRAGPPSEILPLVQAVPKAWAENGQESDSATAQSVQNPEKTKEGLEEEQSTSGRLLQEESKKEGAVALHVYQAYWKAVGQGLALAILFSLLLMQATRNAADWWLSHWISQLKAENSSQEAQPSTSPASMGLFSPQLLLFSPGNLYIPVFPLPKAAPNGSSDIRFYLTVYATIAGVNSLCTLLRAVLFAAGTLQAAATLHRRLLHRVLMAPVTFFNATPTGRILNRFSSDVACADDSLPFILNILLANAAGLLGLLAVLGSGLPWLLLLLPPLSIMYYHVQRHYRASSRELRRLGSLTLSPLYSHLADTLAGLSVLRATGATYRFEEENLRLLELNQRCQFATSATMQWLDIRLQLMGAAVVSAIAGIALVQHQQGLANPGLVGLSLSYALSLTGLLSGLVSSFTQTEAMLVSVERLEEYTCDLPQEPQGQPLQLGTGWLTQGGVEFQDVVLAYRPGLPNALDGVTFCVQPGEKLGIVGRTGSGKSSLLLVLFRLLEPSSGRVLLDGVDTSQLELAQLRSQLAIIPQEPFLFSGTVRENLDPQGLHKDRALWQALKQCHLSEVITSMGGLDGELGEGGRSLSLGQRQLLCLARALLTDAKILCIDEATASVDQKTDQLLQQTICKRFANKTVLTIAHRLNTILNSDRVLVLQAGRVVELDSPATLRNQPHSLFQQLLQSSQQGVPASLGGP

MRP1 = MRP1 (Homo sapiens, UniProt P33527); conditions: read-out: published inhibitory concentrations IC50 or Ki, MRP1; cited from earlier work
Sequence of MRP1 (P33527 whole entry): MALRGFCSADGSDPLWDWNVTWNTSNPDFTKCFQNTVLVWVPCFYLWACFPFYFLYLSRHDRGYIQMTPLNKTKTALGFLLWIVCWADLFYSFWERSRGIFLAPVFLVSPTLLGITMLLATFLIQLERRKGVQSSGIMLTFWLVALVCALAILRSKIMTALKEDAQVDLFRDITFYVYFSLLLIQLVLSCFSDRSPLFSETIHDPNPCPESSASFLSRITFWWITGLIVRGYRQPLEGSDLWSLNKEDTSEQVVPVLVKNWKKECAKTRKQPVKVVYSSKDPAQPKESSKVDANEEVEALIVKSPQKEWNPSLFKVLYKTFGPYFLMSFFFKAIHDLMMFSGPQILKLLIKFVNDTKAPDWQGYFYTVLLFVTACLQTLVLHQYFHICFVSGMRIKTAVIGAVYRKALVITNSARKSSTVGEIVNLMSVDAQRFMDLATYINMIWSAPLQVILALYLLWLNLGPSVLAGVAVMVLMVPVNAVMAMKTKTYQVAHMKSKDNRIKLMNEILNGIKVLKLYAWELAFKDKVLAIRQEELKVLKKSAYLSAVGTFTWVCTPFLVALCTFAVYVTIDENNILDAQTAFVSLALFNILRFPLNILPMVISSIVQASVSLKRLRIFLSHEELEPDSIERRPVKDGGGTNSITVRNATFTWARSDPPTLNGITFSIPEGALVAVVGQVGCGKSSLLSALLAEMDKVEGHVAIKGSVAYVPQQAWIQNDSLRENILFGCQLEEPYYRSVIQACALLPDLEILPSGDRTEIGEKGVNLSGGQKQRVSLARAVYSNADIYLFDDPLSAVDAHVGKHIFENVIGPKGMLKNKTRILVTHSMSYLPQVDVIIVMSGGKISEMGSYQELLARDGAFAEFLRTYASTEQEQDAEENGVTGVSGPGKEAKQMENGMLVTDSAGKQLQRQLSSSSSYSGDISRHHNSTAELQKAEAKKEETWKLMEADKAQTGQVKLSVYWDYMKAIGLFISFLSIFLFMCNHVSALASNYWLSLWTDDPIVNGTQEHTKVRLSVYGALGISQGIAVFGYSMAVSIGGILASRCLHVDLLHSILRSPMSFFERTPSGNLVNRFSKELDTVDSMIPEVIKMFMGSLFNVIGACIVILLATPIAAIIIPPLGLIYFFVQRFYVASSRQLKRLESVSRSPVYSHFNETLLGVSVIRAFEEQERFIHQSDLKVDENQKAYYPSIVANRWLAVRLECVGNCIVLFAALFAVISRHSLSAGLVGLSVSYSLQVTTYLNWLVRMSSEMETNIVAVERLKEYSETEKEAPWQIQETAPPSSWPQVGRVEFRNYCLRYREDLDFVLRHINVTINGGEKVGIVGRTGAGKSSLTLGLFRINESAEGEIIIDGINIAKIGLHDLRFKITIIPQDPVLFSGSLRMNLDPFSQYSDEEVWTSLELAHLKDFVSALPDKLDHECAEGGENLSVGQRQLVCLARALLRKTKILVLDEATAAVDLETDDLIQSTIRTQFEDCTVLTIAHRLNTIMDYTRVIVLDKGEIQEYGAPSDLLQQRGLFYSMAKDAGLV

Sequence of MRP transporters (Homo sapiens, UniProt P33527) (P33527 whole entry): as above

## CCCN(CCC)S(=O)(=O)c1ccc(C(=O)O)cc1 [Probenecid]
MRP transporters [1]
  IC50: 100 to 200 µM
MRP transporters [2]
  IC50: 500 to 800 µM
Hyaluronan transport
  inhibition of hyaluronan transport (words): inhibited hyaluronan transport
MRP7
  inhibition of 17β-glucuronosyl-estradiol export by MRP7: weak inhibitor
  published inhibitory concentrations IC50 or Ki, MRP7: weak
MRP1
  IC50: 100 to 200 µM
